Here are results for 13 compounds from US7696246B2 (Ligand Pharmaceuticals Incorporated, priority 1999, dated 2010).

Experiment [1] has as its target T1, PR (Homo sapiens, UniProt P06401).
T1 sequence (P06401 1-933): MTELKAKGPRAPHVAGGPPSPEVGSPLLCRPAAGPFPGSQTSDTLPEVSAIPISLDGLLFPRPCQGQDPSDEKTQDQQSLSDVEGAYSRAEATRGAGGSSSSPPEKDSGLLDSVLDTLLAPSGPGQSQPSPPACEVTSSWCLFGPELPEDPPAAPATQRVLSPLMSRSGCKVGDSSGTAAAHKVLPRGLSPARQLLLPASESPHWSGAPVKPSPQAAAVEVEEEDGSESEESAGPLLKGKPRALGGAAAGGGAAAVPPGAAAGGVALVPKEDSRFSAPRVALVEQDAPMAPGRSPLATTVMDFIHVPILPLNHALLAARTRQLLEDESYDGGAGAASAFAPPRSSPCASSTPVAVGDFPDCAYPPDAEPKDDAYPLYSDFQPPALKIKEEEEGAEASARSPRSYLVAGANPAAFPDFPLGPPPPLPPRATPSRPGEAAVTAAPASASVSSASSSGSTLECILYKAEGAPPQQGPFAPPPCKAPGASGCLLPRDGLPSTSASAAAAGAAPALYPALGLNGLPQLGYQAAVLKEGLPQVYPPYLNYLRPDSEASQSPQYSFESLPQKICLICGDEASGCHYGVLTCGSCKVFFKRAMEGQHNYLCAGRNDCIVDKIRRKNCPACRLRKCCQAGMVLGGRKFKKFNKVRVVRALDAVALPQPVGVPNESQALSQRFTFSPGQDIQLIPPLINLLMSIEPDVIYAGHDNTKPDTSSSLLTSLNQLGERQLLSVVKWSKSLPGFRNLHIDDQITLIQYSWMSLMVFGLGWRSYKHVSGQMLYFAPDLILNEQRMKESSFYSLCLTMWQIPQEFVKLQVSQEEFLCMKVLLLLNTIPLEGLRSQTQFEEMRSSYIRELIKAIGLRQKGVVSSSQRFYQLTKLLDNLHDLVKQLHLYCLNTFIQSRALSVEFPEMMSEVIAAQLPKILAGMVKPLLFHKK
Description: Co-transfection assay, PR antagonist activity (CV-1 cells, in presence of progesterone). Format: cell-based. Details: expressed in transfected cells; host or cells: CV-1 cells. The settings on record: for PR Antagonist CV-1 Cells Efficacy (%): percent maximal inhibition, progesterone at its EC50.

For experiment [2], the target named is T1, PR. Description: Co-transfection assay, PR agonist activity (CV-1 cells). The class given is cell-based. Details: expressed in transfected cells; host or cells: CV-1 cells. To be noted: for EC50: agonist potency EC50; for PR Agonist CV-1 Cells Efficacy (%): percent maximal response relative to reference agonist progesterone.
The target in experiment [3] is T1, PR. Description: PR competitive binding assay. To be noted: Cheng-Prusoff.
Description: After correcting for non-specific binding, IC50 values were determined. […] The IC50 value was determined graphically from a log-logit plot of the data. The Ki values were determined by application of the Cheng-Prusoff equivuation to the IC50 values, the labeled ligand concentration and the Kd of the labeled ligand.
In experiment [4] the target is T2, human AR (Homo sapiens, UniProt P10275).
T2 sequence (P10275 1-920): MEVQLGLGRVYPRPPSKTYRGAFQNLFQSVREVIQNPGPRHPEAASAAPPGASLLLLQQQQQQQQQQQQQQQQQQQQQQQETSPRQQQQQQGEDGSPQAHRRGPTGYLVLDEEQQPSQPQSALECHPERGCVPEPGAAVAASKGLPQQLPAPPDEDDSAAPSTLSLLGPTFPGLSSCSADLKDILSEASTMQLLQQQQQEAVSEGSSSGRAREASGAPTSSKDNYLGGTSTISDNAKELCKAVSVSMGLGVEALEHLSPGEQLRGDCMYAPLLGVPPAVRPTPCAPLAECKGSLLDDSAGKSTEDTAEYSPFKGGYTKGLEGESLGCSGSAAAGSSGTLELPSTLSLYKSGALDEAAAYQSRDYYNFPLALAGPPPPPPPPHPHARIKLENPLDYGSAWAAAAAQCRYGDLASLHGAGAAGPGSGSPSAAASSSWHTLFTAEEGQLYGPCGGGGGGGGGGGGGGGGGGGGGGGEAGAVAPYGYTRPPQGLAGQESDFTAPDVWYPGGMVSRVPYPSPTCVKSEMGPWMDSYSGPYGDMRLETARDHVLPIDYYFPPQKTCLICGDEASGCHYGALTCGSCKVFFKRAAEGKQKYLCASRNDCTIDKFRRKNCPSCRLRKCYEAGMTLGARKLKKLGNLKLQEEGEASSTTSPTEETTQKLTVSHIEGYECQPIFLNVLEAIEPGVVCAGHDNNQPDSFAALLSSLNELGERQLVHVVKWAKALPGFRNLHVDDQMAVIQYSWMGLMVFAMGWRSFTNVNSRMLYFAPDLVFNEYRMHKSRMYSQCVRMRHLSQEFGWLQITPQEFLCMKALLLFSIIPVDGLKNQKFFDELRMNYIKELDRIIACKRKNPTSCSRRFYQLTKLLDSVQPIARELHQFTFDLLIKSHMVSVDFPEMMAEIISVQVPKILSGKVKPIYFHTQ
Description: Co-transfection assay, AR agonist activity (CV-1 cells, MTV-LUC reporter). Format: cell-based. To be noted: CV-1 cells; for EC50: agonist potency EC50.

Experiment [5] addresses T2, human AR. Description: Co-transfection assay, AR antagonist activity (CV-1 cells, in presence of DHT). The class given is cell-based. The settings on record: for AR Antagonist CV-1 Cells Efficacy (%): percent maximal inhibition, DHT at its EC50; for IC50: read-out: AR Antagonist CV-1 Cells Potency.
Experiment [6] addresses T2, human AR. Description: AR whole cell competitive binding assay (COS-1 cells, 3H-DHT). The settings on record: 1 nM 3H-DHT, Cheng-Prusoff.
The mark [7] stands for this setting: read-out: PR Antagonist CV-1 Cells Potency.

Like-named read-outs stand apart in the source and are kept apart here.

In the case of `CCN(CC(C)(C)C)c1ccc2[nH]c(=O)cc(C(F)(F)F)c2c1` [Compound 242, 6-(N-Ethyl-N-2,2-dimethylpropyl)amino-4-trifluoromethyl-2(1H)-quinolinone], the IC50 on PR [1] was 200 nM; on human AR [5], more than 10000 nM. In addition, the “PR Antagonist CV-1 Cells Efficacy (%)” value at PR [1] was 95%. In addition, the EC50 was more than 10000 nM at PR [2] and 2.8 nM on human AR [4]. In addition, the “PR Agonist CV-1 Cells Efficacy (%)” value at PR [2] was “na (na = not active (i.e. efficacy of <20 and potency of >10,000))”. Besides, the Ki was 70 nM on PR [3] and 32 nM at human AR [6]. The “AR Agonist CV-1 Cells Efficacy (%)” value at human AR [4] (percent maximal response relative to reference agonist DHT) is 66%. On human AR [5], the “AR Antagonist CV-1 Cells Efficacy (%)” value was “na (na = not active (i.e. efficacy of <20 and potency of >10,000))”.
Consider `CC(=O)c1cccc(-c2ccc3[nH]c(=O)cc(C(F)(F)F)c3c2)c1` [Compound 735, 4-Trifluoromethyl-6-(3-acetylphenyl)-2(1H)-quinolinone], for which, at PR [1], the IC50 was 326 nM and the “PR Antagonist CV-1 Cells Efficacy (%)” value was 84%. Further, at PR [2], the EC50 is more than 10000 nM; the “PR Agonist CV-1 Cells Efficacy (%)” value was “na (na = not active (i.e. efficacy of <20 and potency of >10,000))”. Further, on PR [3], the affinity, expressed as Ki, was 915 nM.
`CC(C)CN(CC(F)(F)F)c1cc2c(C(F)(F)F)cc(=O)[nH]c2cc1O` [Compound 473, 6-(N-Isobutyl-N-2,2,2-trifluoroethyl)amino-7-hydroxy-4-trifluoromethyl-2(1H)-quinolinone]: on PR [1], the IC50 was determined as 880 nM and the “PR Antagonist CV-1 Cells Efficacy (%)” value is 55%. In addition, on PR [2], the EC50 was more than 10000 nM; the “PR Agonist CV-1 Cells Efficacy (%)” value was “na (na = not active (i.e. efficacy of <20 and potency of >10,000))”. The same compound displayed a Ki on PR [3] of 508 nM.
Turning to `O=c1cc(C(F)(F)F)c2cc(-c3cccc([N+](=O)[O-])c3)ccc2[nH]1` [Compound 727, 4-Trifluoromethyl-6-(3-nitro)phenyl-2(1H)-quinolinone], on PR [1], the IC50 was determined as 108 nM and the “PR Antagonist CV-1 Cells Efficacy (%)” value is 90%. On PR [2], the EC50 is more than 10000 nM; the “PR Agonist CV-1 Cells Efficacy (%)” value is “na (na = not active (i.e. efficacy of <20 and potency of >10,000))”. The Ki at PR [3] was found to be 161 nM.
On to `CC1(C)OC(=O)Nc2ccc(C3=CCCCC3)cc21` [Compound 667, 6-(1-Cyclohexenyl)-1,4-dihydro-4,4-dimethyl-1,3-benzo[d]oxazin-2-one], for which, at PR [1], the “PR Antagonist CV-1 Cells Efficacy (%)” value stood at 89%. Also, the values for the IC50 on PR [1] (setting [7]) and at human AR [5] were 70 nM and 27 nM, respectively. Also, the EC50 on PR [2] and at human AR [4] was more than 10000 nM in each case. For the same compound, the “PR Agonist CV-1 Cells Efficacy (%)” value on PR [2] is “na (na = not active (i.e. efficacy of <20 and potency of >10,000))”. In addition, the Ki at PR [3] worked out at 144 nM; on human AR [6] it was 7.4 nM. Besides, the “AR Antagonist CV-1 Cells Efficacy (%)” value on human AR [5] stood at 89%.
On to `CC1(C)OC(=S)Nc2ccc(C3=CC(O)CCC3)cc21` (racemic) [Compound 697, (±)-6-(3-Hydroxy-1-)cyclohexenyl-1,4-dihydro-4,4-dimethyl-1,3-benzo[d]oxazin-2-thione], for which, at PR [1], the “PR Antagonist CV-1 Cells Efficacy (%)” value was determined as 58%. The IC50 at PR [1] (setting [7]) came to 316 nM. On PR [2], the EC50 is more than 10000 nM; the “PR Agonist CV-1 Cells Efficacy (%)” value was “na (na = not active (i.e. efficacy of <20 and potency of >10,000))”. Further, the Ki on PR [3] was more than 1000 nM.
Take `CCCC(C)N(CCC)c1ccc2[nH]c(=O)cc(C(F)(F)F)c2c1` (racemic) [Compound 251, (±)-6-(N-Propyl-N-1-methylbutyl)amino-4-trifluoromethyl-2(1H)-quinolinone]: at PR [1], the IC50 turned out to be 747 nM and the “PR Antagonist CV-1 Cells Efficacy (%)” value is 91%. Moreover, at PR [2], the EC50 is more than 10000 nM; the “PR Agonist CV-1 Cells Efficacy (%)” value was “na (na = not active (i.e. efficacy of <20 and potency of >10,000))”. Also, the Ki on PR [3] is 930 nM.
Take `CC1(C)OC(=O)Nc2ccc(C3CCCCCC3)cc21` [Compound 671, 6-(1-Cycloheptyl)-1,4-dihydro-4,4-dimethyl-1,3-benzo[d]oxazin-2-one]: on PR [1], the “PR Antagonist CV-1 Cells Efficacy (%)” value worked out at 62%. At PR [1] (setting [7]), the IC50 is 200 nM. Also, on PR [2], the EC50 was more than 10000 nM; the “PR Agonist CV-1 Cells Efficacy (%)” value is “na (na = not active (i.e. efficacy of <20 and potency of >10,000))”. On PR [3], this compound registered a Ki of more than 1000 nM.
For `CC(=O)[C@H]1CC[C@H]2[C@@H]3CCC4=CC(=O)CC[C@]4(C)[C@H]3CC[C@]12C` [Prog, progesterone, reference compound], the “PR Antagonist CV-1 Cells Efficacy (%)” value on PR [1] is “na (na = not active (i.e. efficacy of <20 and potency of >10,000))”. The “PR Agonist CV-1 Cells Efficacy (%)” value on PR [2] came out at 100%.
Consider `FC(F)(F)c1cc(=S)[nH]c2ccc(C3CCCCC3)cc12` [Compound 631, 6-Cyclohexyl-4-trifluoromethyl-2(1H)-thioquinolinone], for which, on PR [1], the IC50 came out at 796 nM and the “PR Antagonist CV-1 Cells Efficacy (%)” value came to 75%. Moreover, on PR [2], the EC50 is more than 10000 nM; the “PR Agonist CV-1 Cells Efficacy (%)” value is “na (na = not active (i.e. efficacy of <20 and potency of >10,000))”. For the same compound, the affinity on PR [3], expressed as Ki, was 136 nM.
On to `CC1(C)OC(=S)Nc2ccc(C3=CC(=O)CCC3)cc21` [Compound 695, 6-(3-Oxo-1-)cyclohexenyl-1,4-dihydro-4,4-dimethyl-1,3-benzo[d]oxazin-2-thione], for which, on PR [1], the “PR Antagonist CV-1 Cells Efficacy (%)” value is recorded as 90%. The IC50 at PR [1] (setting [7]) turned out to be 20 nM. At PR [2], the EC50 is more than 10000 nM; the “PR Agonist CV-1 Cells Efficacy (%)” value is “na (na = not active (i.e. efficacy of <20 and potency of >10,000))”. This compound yielded a Ki at PR [3] of 203 nM.
For `N#Cc1cc(F)cc(-c2ccc3[nH]c(=O)cc(C(F)(F)F)c3c2)c1` [Compound 731, 4-Trifluoromethyl-6-(3-fluoro-5-cyano)phenyl-2(1H)-quinolinone], at PR [1], the IC50 stood at 64 nM and the “PR Antagonist CV-1 Cells Efficacy (%)” value turned out to be 89%. Also, on PR [2], the EC50 is more than 10000 nM; the “PR Agonist CV-1 Cells Efficacy (%)” value was “na (na = not active (i.e. efficacy of <20 and potency of >10,000))”. In addition, the Ki on PR [3] was 154 nM.
With `CN(C)c1ccc([C@H]2C[C@]3(C)[C@@H](CC[C@]3(O)CCCO)[C@@H]3CCC4=CC(=O)CCC4=C32)cc1` [ZK299, reference compound], the “PR Antagonist CV-1 Cells Efficacy (%)” value at PR [1] is listed as 95%. In addition, at PR [2], the “PR Agonist CV-1 Cells Efficacy (%)” value is “na (na = not active (i.e. efficacy of <20 and potency of >10,000))”.

Broadly, the EC50 is the concentration needed to bring the measured effect to its halfway point. For orientation: Ki means a measure of affinity in units of concentration, obtained from inhibition or displacement.
